Structures are written as SMILES. Where two headings read alike, the source gives them in different places.

Here are results for two compounds from patent US9783534B2 (priority 2013, dated 2017).

In one data set the test system is Plasmopara viticola. Nature of the data set: Plasmopara test (vine)/protective. The data set is classed as in vivo. As to conditions: protective, 50 g a.i./liter SC formulation, evaluation 6 days after inoculation. An excerpt:
To produce a suitable active ingredient preparation, formulations are suspended with water and diluted to the desired concentration. In the present case, both the known amorphous modification of the substance 2-{3-[2-(1-{[3,5-bis(difluoromethyl)-1H-pyrazol-1-yl]acetyl}piperidin-4-yl)-1,3-thiazol-4-yl]-4,5-dihydro-1,2-oxazol-5-yl}-3-chlorophenylmethanesulphonate (form A), as well as the inventive crystalline form of the substance 2-{3-[2-(1-{[3,5-bis(difluoromethyl)-1H-pyrazol-1-yl]acetyl}piperidin-4-yl)-1,3-thiazol-4-yl]-4,5-dihydro-1,2-oxazol-5-yl}-3-chlorophenylmethanesulphonate (form B) are used as 50 g a.i./liter of SC formulation.
To test for protective effectiveness, young plants are sprayed with the active ingredient preparation at the stated application rate. After initial drying of the spray coating, the plants are inoculated with an aqueous spore suspension of Plasmopara viticola and then remain in an incubation cabin for 1 day at approx. 20° C. and 100% relative atmospheric humidity. The plants are then placed in a greenhouse at approx. 21° C. and approx. 90% atmospheric humidity for 4 days. The plants are then moistened and placed in an incubation cabin for 1 day.
Evaluation is carried out 6 days after the inoculation. 0% here means an efficacy which corresponds to that of the control, whereas an efficacy of 100% means that no infection is observed.

Data set [1] in a line: Stability of the solid form on storage. Particulars: prolonged storage. The data set is classed as physicochemical.
The test system of the next data set is Phytophthora infestans. The data set is classed as in vivo. Particulars: tomato, protective, 50 g a.i./liter SC formulation, evaluation 3 days after inoculation.
Setting [2] is: application rate 0.05 ppm active ingredient.
The mark [3] stands for this setting: application rate 0.1 ppm active ingredient.
Where [4] appears, read: application rate 0.2 ppm active ingredient.

Consider `CS(=O)(=O)Oc1cccc(Cl)c1C1CC(c2csc(C3CCN(C(=O)Cn4nc(C(F)F)cc4C(F)F)CC3)n2)=NO1` (single isomer, unassigned) [Form B, 2-{3-[2-(1-{[3,5-bis(difluoromethyl)-1H-pyrazol-1-yl]acetyl}piperidin-4-yl)-1,3-thiazol-4-yl]-4,5-dihydro-1,2-oxazol-5-yl}-3-chlorophenylmethanesulphonate], for which the Efficacy in % in the data set with Plasmopara viticola (setting [2]) is given as 0%; with Plasmopara viticola (setting [3]) it was 35%; with Plasmopara viticola (setting [4]), 75%; in the data set with Phytophthora infestans (setting [2]), 40%; in the data set with Phytophthora infestans (setting [3]) it was 60%; in the data set on Phytophthora infestans (setting [4]), 76%. For the same compound, the “thermodynamic stability / conversion into another form” value in data set [1] was “not converted into another form even on prolonged storage”.

In the case of `CS(=O)(=O)Oc1cccc(Cl)c1C1CC(c2csc(C3CCN(C(=O)Cn4nc(C(F)F)cc4C(F)F)CC3)n2)=NO1` (single isomer, unassigned) [Form A, 2-{3-[2-(1-{[3,5-bis(difluoromethyl)-1H-pyrazol-1-yl]acetyl}piperidin-4-yl)-1,3-thiazol-4-yl]-4,5-dihydro-1,2-oxazol-5-yl}-3-chlorophenylmethanesulphonate, reference compound], the Efficacy in % in the data set with Plasmopara viticola (setting [2]) is recorded as 0%; in the data set on Plasmopara viticola (setting [3]) it was 6%; with Plasmopara viticola (setting [4]), 35%; in the data set with Phytophthora infestans (setting [2]), 0%; in the data set on Phytophthora infestans (setting [3]), 15%; in the data set with Phytophthora infestans (setting [4]) it was 40%.
